Experimental data reported in patent US7709482B2, “Polycyclic heteroaryl substituted triazoles useful as Axl inhibitors” (Rigel Pharmaceuticals, Inc., priority 2006, dated 2010).

biological target: T1, Axl (Homo sapiens, UniProt P30530); assay: Phospho-Akt In-Cell Western Assay (inhibition of Axl activity after Axl-antibody cross-linking); format: cell-based; settings: Hela cells, phospho-Akt chemiluminescence normalized to relative cell number; compounds of formula (Ia), Table 1; read-out: IC50
T1 construct: endogenous in cells; host or cells: HeLa cells
T1 sequence (P30530 26-894): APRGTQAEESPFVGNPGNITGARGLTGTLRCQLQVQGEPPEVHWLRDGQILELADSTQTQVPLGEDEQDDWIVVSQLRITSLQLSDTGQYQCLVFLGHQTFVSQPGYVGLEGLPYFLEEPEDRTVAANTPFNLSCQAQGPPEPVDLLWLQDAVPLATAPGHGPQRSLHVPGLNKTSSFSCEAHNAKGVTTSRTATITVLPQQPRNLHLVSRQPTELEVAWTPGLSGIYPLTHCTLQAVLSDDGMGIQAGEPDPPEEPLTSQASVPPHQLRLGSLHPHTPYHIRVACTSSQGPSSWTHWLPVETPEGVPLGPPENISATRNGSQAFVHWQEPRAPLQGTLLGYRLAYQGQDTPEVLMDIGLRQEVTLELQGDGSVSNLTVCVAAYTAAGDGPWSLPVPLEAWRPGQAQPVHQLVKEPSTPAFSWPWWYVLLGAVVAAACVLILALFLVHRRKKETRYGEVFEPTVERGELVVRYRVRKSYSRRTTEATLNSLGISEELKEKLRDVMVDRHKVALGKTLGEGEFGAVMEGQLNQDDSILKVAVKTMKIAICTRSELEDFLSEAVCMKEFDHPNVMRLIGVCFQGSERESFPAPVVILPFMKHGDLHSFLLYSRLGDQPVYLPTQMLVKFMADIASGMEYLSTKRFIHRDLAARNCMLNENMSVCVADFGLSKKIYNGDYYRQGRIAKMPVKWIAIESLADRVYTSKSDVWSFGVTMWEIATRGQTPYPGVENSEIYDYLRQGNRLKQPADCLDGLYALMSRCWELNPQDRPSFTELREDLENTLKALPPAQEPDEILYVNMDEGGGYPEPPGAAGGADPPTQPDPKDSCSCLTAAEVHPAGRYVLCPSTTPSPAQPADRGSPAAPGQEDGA
Procedure, shortened: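 Phospho-Akt was detected in formaldehyde-fixed cells by in-cell immunostaining with HRP chemiluminescence. Before fixation, HeLa cells kept 24 h in low-serum medium containing 500 ng/mL Axl/Fc received compound for 1 h at 37 °C, followed by 5-min Axl activation through antibody clustering.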

Compound	IC50
Cc1cc(Nc2nc(N)n(-c3cc4c(nn3)-c3ccccc3CCC4)n2)ccc1N1CCC(N2CCN(C)CC2)CC1 [Compound 114, 1-(6,7-dihydro-5H-benzo[6,7]cyclohepta[1,2-c]pyridazin-3-yl)-N^3-(3-methyl-4-(4-(N-methylpiperazin-4-yl)piperidin-1-yl)phenyl)-1H-1,2,4-triazole-3,5-diamine]	< 1000 nM
Nc1nc(Nc2ccc(N3CC[C@@H](CN4CCCC4)C3)c(F)c2)nn1-c1cc2c(nn1)-c1ccccc1CCC2 [Compound 115, 1-(6,7-dihydro-5H-benzo[6,7]cyclohepta[1,2-c]pyridazin-3-yl)-N^3-(3-fluoro-4-((S)-3-(pyrrolidin-1-ylmethyl)pyrrolidinyl)phenyl)-1H-1,2,4-triazole-3,5-diamine]	1000 to 10000 nM
Nc1nc(Nc2ccc(N3CCC(N4CCCC4)CC3)cc2)nn1-c1cc2c(nn1)-c1ccccc1OCC2 [Compound 116, 1-(6,7-dihydro-5H-benzo[2,3]oxepino[4,5-c]pyridazin-3-yl)-N^3-(4-(4-pyrrolidin-1-ylpiperidinyl)phenyl)-1H-1,2,4-triazole-3,5-diamine]	1000 to 10000 nM
Nc1nc(Nc2ccc(N3CCC(N4CCCC4)CC3)c(F)c2)nn1-c1cc2c(nn1)-c1ccccc1OCC2 [Compound 117, 1-(6,7-dihydro-5H-benzo[2,3]oxepino[4,5-c]pyridazin-3-yl)-N^3-(3-fluoro-4-(4-pyrrolidin-1-ylpiperidinyl)phenyl)-1H-1,2,4-triazole-3,5-diamine]	< 1000 nM
Nc1nc(Nc2ccc3oc(CN4CCCC4)nc3c2)nn1-c1cc2c(nn1)-c1ccccc1OCC2 [Compound 118, 1-(6,7-dihydro-5H-benzo[2,3]oxepino[4,5-c]pyridazin-3-yl)-N^3-(2-(pyrrolidin-1-ylmethyl)benzo[d]oxazol-5-yl)-1H-1,2,4-triazole-3,5-diamine]	1000 to 10000 nM
Nc1nc(Nc2ccc(N3CCC(N4CCCC4)CC3)c(F)c2)nn1-c1cc2c(nn1)-c1ccccc1SCC2 [Compound 119, 1-(6,7-dihydro-5H-benzo[2,3]thiepino[4,5-c]pyridazin-3-yl)-N^3-(3-fluoro-4-(4-pyrrolidin-1-ylpiperidinyl)phenyl)-1H-1,2,4-triazole-3,5-diamine]	< 1000 nM
Nc1nc(Nc2ccc(N3CCC(N4CCCC4)CC3)cc2)nn1-c1cc2c(nn1)-c1ccccc1SCC2 [Compound 120, 1-(6,7-dihydro-5H-benzo[2,3]thiepino[4,5-c]pyridazin-3-yl)-N^3-(4-(4-pyrrolidin-1-ylpiperidinyl)phenyl)-1H-1,2,4-triazole-3,5-diamine]	< 1000 nM
CN(C)CCN1CCOc2cc(Nc3nc(N)n(-c4cc5c(nn4)-c4ccccc4CCC5)n3)ccc21 [Compound 121, 1-(6,7-dihydro-5H-benzo[6,7]cyclohepta[1,2-c]pyridazin-3-yl)-N^3-(4-(2-dimethylaminoethyl)-(3,4-dihydro-2H-benzo[b][1,4]oxazin-7-yl))-1H-1,2,4-triazole-3,5-diamine]	< 1000 nM
CN(C)CCN1CCOc2cc(Nc3nc(N)n(-c4cc5c(nn4)-c4ccccc4OCC5)n3)ccc21 [Compound 122, 1-(6,7-dihydro-5H-benzo[2,3]oxepino[4,5-c]pyridazin-3-yl)-N^3-(4-(2-dimethylaminoethyl)-(3,4-dihydro-2H-benzo[b][1,4]oxazin-7-yl))-1H-1,2,4-triazole-3,5-diamine]	< 1000 nM
Nc1nc(Nc2ccc(N3Cc4ccccc4C3)c(F)c2)nn1-c1cc2c(nn1)-c1ccccc1SCC2 [Compound 123, 1-(6,7-dihydro-5H-benzo[2,3]thiepino[4,5-c]pyridazin-3-yl)-N^3-(3-fluoro-4-(isoindolin-2-yl)phenyl)-1H-1,2,4-triazole-3,5-diamine]	> 20000 nM
Nc1nc(Nc2ccc(N3CCC(CN4CCCC4)CC3)c(F)c2)nn1-c1cc2c(nn1)-c1ccccc1CCC2 [Compound 124, 1-(6,7-dihydro-5H-benzo[6,7]cyclohepta[1,2-c]pyridazin-3-yl)-N^3-(3-fluoro-4-(4-(pyrrolidinylmethyl)-piperidinyl)phenyl)-1H-1,2,4-triazole-3,5-diamine]	< 1000 nM
Nc1nc(Nc2ccc(N3CCC(CN4CCCC4)CC3)c(F)c2)nn1-c1cc2c(nn1)-c1ccccc1SCC2 [Compound 125, 1-(6,7-dihydro-5H-benzo[2,3]thiepino[4,5-c]pyridazin-3-yl)-N^3-(3-fluoro-4-(4-(pyrrolidinylmethyl)-piperidinyl)phenyl)-1H-1,2,4-triazole-3,5-diamine]	< 1000 nM
Nc1nc(Nc2ccc(N3CC[C@H]4CCCC[C@@H]4C3)c(F)c2)nn1-c1cc2c(nn1)-c1ccccc1SCC2 [Compound 126, 1-(6,7-dihydro-5H-benzo[2,3]thiepino[4,5-c]pyridazin-3-yl)-N^3-(3-fluoro-4-((4aR,8aS)-decahydroisoquinolin-2-yl)phenyl)-1H-1,2,4-triazole-3,5-diamine]	> 20000 nM
Nc1nc(Nc2ccc(N3CC[C@H]4CCCC[C@@H]4C3)c(F)c2)nn1-c1cc2c(nn1)-c1ccccc1CCC2 [Compound 127, 1-(6,7-dihydro-5H-benzo[6,7]cyclohepta[1,2-c]pyridazin-3-yl)-N^3-(3-fluoro-4-((4aR,8aS)-decahydroisoquinolin-2-yl)phenyl)-1H-1,2,4-triazole-3,5-diamine]	1000 to 10000 nM

same assay, conditions: inhibition of Axl activity; Table 1, compounds of formula (Ia); read-out: IC50

Compound	IC50
Nc1nc(Nc2ccc(N3CCN4CCCCC4C3)c(F)c2)nn1-c1cc2c(nn1)-c1ccccc1CCC2 (stereo not shown) [Compound 128, 1-(6,7-dihydro-5H-benzo[6,7]cyclohepta[1,2-c]pyridazin-3-yl)-N^3-(3-fluoro-4-(octahydro-1H-pyrido[1,2-a]pyrazin-2-yl)phenyl)-1H-1,2,4-triazole-3,5-diamine]	1000 to 10000 nM
Nc1nc(Nc2ccc(N3CCN4CCCCC4C3)c(F)c2)nn1-c1cc2c(nn1)-c1ccccc1SCC2 (stereo not shown) [Compound 129, 1-(6,7-dihydro-5H-benzo[2,3]thiepino[4,5-c]pyridazin-3-yl)-N^3-(3-fluoro-4-(octahydro-1H-pyrido[1,2-a]pyrazin-2-yl)phenyl)-1H-1,2,4-triazole-3,5-diamine]	< 1000 nM
CCN(CC)CC1CCCN1c1ccc(Nc2nc(N)n(-c3cc4c(nn3)-c3ccccc3CCC4)n2)cn1 (stereo not shown) [Compound 130, 1-(6,7-dihydro-5H-benzo[6,7]cyclohepta[1,2-c]pyridazin-3-yl)-N^3-(6-(2-diethylaminomethyl)pyrrolidin-1-ylpyridin-3-yl)-1H-1,2,4-triazole-3,5-diamine]	1000 to 10000 nM
CN(C)CCN1CCN(C(=O)c2cc3cc(Nc4nc(N)n(-c5cc6c(nn5)-c5ccccc5SCC6)n4)ccc3s2)CC1 [Compound 131, 1-(6,7-dihydro-5H-benzo[2,3]thiepino[4,5-c]pyridazin-3-yl)-N^3-(2-(1-(4-(2-(dimethylamino)ethyl)-piperazin-1-yl)oxomethyl)benzo[b]thio-phen-5-yl)-1H-1,2,4-triazole-3,5-diamine]	1000 to 10000 nM
Nc1nc(Nc2ccc(N3CCC(N4CCCC4)C3)c(F)c2)nn1-c1cc2c(nn1)-c1ccccc1CCC2 (stereo not shown) [Compound 132, 1-(6,7-dihydro-5H-benzo[6,7]cyclohepta[1,2-c]pyridazin-3-yl)-N^3-(3-fluoro-(4-(3-pyrrolidin-1-yl)pyrrolidin-1-yl)phenyl)-1H-1,2,4-triazole-3,5-diamine]	< 1000 nM
CCN(CC)C1CCN(c2ccc(Nc3nc(N)n(-c4cc5c(nn4)-c4ccccc4CCC5)n3)cn2)C1 (stereo not shown) [Compound 133, 1-(6,7-dihydro-5H-benzo[6,7]cyclohepta[1,2-c]pyridazin-3-yl)-N^3-(6-(3-diethylaminopyrrolidin-1-yl)pyridin-3-yl)-1H-1,2,4-triazole-3,5-diamine]	< 1000 nM
CN1CC2CN(C3CCN(c4ccc(Nc5nc(N)n(-c6cc7c(nn6)-c6ccccc6CCC7)n5)cc4F)CC3)CC2C1 (stereo not shown) [Compound 134, 1-(6,7-dihydro-5H-benzo[6,7]cyclohepta[1,2-c]pyridazin-3-yl)-N^3-(3-fluoro-4-(4-(5-methyloctahydropyrrolo[3,4-c]pyrrolyl)piperidin-1-yl)phenyl)-1H-1,2,4-triazole-3,5-diamine]	< 1000 nM
CN1CCN(C2CCN(C/C=C/c3ccc(Nc4nc(N)n(-c5cc6c(nn5)-c5ccccc5CCC6)n4)cn3)CC2)CC1 [Compound 135, 1-(6,7-dihydro-5H-benzo[6,7]cyclohepta[1,2-c]pyridazin-3-yl)-N^3-(6-(3-(4-(N-methylpiperazin-4-yl)piperidin-1-yl)-(E)-propenyl)pyridin-3-yl)-1H-1,2,4-triazole-3,5-diamine]	< 1000 nM
